# Measured values from patent US20070112022A1, “Piperidine derivatives as ccr5 receptor modulators” (priority 2003, published 2007).
# Molecular target: recombinant human CCR5 receptor (Homo sapiens, UniProt P51681)
# Assay: in vitro radioligand binding assay: inhibition of iodinated MIP-1α binding to CCR5 membranes (scintillation proximity)
# Conditions: displacement of 0.1 nM iodinated MIP-1α; membranes from Chinese hamster ovary cells expressing recombinant human CCR5; average if tested more than once
# Method: The ability of compounds to inhibit the binding of MIP-1α was assessed by an in vitro radioligand binding assay. Membranes were prepared from Chinese hamster ovary cells which expressed the recombinant human CCR5 receptor. These membranes were incubated with 0.1 nM iodinated MIP-1α, scintillation proximity beads and various concentrations of the compounds of the invention in 96-well plates. The amount of iodinated MIP-1α bound to the receptor was determined by scintillation counting. Competition curves were obtained for compounds and the concentration of compound which displaced 50% of bound iodinated MIP-1α was calculated (IC50).
# In Table VI the results are presented as Pic50 values. A Pic50 value is the negative log (to base 10) of the IC50 result, so an IC50 of 1 μM (that is 1×10^−6M) gives a Pic50 of 6. If a compound was tested more than once then the data below is an average of the probative tests results.
# recombinant human CCR5 receptor, sequence (P51681 whole entry): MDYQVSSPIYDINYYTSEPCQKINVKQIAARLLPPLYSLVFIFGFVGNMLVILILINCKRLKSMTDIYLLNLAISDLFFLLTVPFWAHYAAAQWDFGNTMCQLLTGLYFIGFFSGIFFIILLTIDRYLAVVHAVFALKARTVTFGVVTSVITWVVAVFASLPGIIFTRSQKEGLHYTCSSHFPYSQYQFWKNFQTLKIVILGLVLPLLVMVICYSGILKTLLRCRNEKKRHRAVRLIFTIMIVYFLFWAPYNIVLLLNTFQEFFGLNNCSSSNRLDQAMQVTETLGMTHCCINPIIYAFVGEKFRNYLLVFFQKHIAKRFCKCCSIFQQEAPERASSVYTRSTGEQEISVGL
row,IC50,SMILES
1,7.94 nM,"CC(=O)Nc1ccc(S(=O)(=O)NCC2CCN(CC[C@@H](c3cc(F)cc(F)c3)C3CCN(S(C)(=O)=O)CC3)CC2)cc1 [Compound 4 (Table I), N-[4-({[(1-{(3R)-3-(3,5-difluorophenyl)-3-[1-(methylsulfonyl)piperidin-4-yl]propyl}piperidin-4-yl)methyl]amino}sulfonyl)phenyl]-acetamide]"
2,50.1 nM,"CS(=O)(=O)c1ccc([C@@H](CCN2CCC(CNS(=O)(=O)c3ccc(NS(=O)(=O)C(F)(F)F)cc3)CC2)c2cc(F)cc(F)c2)cc1 [Compound 16 (Table II), N-[(1-{(3R)-3-(3,5-difluorophenyl)-3-[4-(methylsulfonyl)phenyl]propyl}piperidin-4-yl)methyl]-4-{[(trifluoromethyl)sulfonyl]amino}-benzenesulfonamide]"
3,7.94 nM,"CS(=O)(=O)c1ccc([C@@H](CCN2CCC(CNS(=O)(=O)c3ccc(-c4nnn[nH]4)cc3)CC2)c2cc(F)cc(F)c2)cc1 [Compound 19 (Table II), N-[(1-{(3R)-3-(3,5-difluorophenyl)-3-[4-(methylsulfonyl)phenyl]propyl}piperidin-4-yl)methyl]-4-(1H-tetrazol-5-yl)-benzenesulfonamide]"
